# Measurements: ChEMBL document CHEMBL4602709 (ACS Med Chem Lett, 2020)
# Columns and labels:
# [1] = Metabolic stability in human liver microsomes assessed as half life at 3 uM measured up to 30 mins in presence of NADPH by […] analysis; format: ADME, Microsome
# [2] = biological target: Voltage-gated inwardly rectifying potassium channel KCNH2 (Homo sapiens, UniProt Q12809); test: Inhibition of human ERG incubated for 4 hrs by competitive fluorescence tracer binding based assay
# [3] = biological target: T1, Ephrin type-B receptor 2 (Homo sapiens) (UniProt P29323); test: Inhibition of EPHB2 (unknown origin) assessed as residual activity at 10 uM incubated for 5 mins in presence of [gamma-33ATP] by scintillation counting based radiometry assay relative to control
# T1 sequence (whole entry): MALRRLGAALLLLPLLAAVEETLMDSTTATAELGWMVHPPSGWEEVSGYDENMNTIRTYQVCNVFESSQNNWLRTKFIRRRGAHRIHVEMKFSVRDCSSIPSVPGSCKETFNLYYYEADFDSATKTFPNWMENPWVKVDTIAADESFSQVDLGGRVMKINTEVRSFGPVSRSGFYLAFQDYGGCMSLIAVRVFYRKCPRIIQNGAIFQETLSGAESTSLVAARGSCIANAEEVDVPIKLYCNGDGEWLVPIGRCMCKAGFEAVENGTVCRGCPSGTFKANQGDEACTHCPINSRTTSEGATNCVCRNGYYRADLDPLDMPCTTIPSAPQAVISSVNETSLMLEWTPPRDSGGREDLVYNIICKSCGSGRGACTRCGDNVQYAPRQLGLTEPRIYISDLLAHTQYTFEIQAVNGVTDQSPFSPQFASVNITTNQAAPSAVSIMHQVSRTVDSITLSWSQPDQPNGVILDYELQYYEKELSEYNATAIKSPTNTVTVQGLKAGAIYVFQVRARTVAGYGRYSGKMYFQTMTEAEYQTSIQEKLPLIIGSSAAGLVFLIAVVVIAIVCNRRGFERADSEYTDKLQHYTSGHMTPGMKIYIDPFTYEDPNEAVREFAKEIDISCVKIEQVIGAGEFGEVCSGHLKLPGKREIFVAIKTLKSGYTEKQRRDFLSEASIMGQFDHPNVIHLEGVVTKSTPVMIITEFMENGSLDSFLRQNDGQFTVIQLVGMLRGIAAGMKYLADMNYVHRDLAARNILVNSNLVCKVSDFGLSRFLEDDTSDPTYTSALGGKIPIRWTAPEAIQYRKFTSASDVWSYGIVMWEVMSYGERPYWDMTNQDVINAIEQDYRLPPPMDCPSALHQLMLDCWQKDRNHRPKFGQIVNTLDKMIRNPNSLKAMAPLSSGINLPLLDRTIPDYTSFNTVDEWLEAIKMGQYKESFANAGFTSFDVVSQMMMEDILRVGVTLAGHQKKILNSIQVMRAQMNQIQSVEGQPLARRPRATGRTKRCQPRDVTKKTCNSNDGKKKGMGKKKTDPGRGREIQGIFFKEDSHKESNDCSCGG
# [4] = biological target: T2, Ephrin type-B receptor 3 (Homo sapiens) (UniProt P54753); test: Inhibition of EPHB3 (unknown origin) assessed as residual activity at 10 uM incubated for 5 mins in presence of [gamma-33ATP] by scintillation counting based radiometry assay relative to control
# T2 sequence (whole entry): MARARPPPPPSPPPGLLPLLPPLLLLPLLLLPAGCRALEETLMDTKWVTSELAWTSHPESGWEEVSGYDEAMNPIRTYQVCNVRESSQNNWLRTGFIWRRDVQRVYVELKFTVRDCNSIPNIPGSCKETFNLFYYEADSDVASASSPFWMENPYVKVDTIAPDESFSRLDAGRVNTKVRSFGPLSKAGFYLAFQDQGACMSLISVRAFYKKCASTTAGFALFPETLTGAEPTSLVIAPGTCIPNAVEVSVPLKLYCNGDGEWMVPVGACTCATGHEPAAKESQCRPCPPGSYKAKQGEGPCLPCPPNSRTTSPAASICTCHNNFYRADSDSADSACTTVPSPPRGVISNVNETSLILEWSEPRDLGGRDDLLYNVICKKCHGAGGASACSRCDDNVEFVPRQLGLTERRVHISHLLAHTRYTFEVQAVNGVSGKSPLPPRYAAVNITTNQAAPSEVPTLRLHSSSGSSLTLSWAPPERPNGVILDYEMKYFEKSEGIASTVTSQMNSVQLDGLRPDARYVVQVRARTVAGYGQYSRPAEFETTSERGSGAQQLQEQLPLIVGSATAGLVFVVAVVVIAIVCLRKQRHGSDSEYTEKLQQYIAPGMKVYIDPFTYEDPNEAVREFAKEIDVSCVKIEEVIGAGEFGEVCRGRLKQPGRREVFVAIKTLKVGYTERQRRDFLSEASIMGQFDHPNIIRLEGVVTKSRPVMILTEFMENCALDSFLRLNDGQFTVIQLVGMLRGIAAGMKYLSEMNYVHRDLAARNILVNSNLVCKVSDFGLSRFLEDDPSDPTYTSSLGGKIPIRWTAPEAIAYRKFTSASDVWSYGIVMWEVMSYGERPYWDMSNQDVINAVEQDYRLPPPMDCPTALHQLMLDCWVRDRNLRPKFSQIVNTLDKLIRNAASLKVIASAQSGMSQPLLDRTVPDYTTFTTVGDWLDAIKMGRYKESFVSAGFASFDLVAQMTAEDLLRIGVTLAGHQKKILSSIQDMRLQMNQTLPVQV
# Chain of Voltage-gated inwardly rectifying potassium channel KCNH2 (Q12809 whole entry): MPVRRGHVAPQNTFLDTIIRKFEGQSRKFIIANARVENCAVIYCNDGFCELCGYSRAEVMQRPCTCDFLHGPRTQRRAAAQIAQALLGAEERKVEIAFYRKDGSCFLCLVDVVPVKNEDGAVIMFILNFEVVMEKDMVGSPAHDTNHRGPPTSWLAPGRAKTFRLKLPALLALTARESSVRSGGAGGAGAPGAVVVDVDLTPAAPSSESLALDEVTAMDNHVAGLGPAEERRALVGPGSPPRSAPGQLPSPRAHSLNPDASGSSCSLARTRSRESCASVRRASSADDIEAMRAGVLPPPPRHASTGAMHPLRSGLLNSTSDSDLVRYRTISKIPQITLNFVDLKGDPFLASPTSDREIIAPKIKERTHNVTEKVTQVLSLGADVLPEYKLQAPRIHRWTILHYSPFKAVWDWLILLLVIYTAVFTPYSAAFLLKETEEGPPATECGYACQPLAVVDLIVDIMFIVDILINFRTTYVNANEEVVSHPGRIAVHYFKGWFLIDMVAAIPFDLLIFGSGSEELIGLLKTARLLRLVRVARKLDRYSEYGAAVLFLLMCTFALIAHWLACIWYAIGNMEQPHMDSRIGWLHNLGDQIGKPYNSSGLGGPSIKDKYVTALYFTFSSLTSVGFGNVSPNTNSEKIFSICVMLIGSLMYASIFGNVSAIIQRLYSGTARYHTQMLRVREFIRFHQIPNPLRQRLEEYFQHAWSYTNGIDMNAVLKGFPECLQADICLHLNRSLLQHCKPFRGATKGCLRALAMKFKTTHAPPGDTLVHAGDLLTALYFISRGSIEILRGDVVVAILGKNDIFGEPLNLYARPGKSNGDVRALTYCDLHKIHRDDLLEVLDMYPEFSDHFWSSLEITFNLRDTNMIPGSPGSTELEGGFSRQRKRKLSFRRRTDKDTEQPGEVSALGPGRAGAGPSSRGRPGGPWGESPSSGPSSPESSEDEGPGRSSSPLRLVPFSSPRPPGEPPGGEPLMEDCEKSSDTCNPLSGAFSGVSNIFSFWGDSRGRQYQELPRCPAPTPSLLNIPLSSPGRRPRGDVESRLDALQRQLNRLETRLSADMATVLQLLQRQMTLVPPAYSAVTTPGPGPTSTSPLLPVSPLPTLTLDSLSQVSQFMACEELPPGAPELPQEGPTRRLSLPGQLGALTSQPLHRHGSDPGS
SMILES,half-life at 3 µM [1] [min],IC50 [2] [µM],Activity [3] [%],Activity [4] [%]
Cc1ccc(C(=O)Nc2ccc(CN3Cc4cn[nH]c4C3)c(Cl)c2)cc1C#Cc1cnc2cccnn12,39.8,12.1,1,5
Cc1cn(-c2cc(NC(=O)c3ccc(C)c(Nc4nccc(-c5cccnc5)n4)c3)cc(C(F)(F)F)c2)cn1 [NILOTINIB],7.89,–,25,52
